Experimental findings from ChEMBL document CHEMBL1201862, “PubChem BioAssay data set” (2004) are described below.

Some test systems named below: RXF 393; EKVX; NCI/ADR-RES; OVCAR-4; CCRF-CEM; SF-295; MDA-MB-231; UACC-62; SK-MEL-28; A498; CAKI-1; RPMI-8226; SK-MEL-2; PC-3; NCI-H522; MDA-N; OVCAR-8; HCT-15; K562; NCI-H23.
What all share (experiment): NCI tumour cell line growth inhibition, 48 h

Molecules are shown by their SMILES.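 48-hour exposure; five concentrations; linearly interpolated endpoints. GI50: concentration for 50% inhibition of growth.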 Activity calls are given as the source filed them. Cut-off read from the data, not from the text of the source: active = GI50 up to about 1.1 µM and inactive = higher.

For `Cc1cc(S(=O)(=O)NC2=Nc3cccc(F)c3CN2)c(S)cc1Cl`, the GI50 was > 100 µM (inactive) in the test with RXF 393; 75 µM (inactive) in the test with EKVX; 49.4 µM (inactive) in the test with NCI/ADR-RES; 68.1 µM (inactive) in the test with OVCAR-4; 57.4 µM (inactive) in the test on CCRF-CEM; 30.1 µM (inactive) in the test on SF-295. The GI50 was > 100 µM (inactive) in the test with MDA-MB-231; 62.1 µM (inactive) with UACC-62; 95.9 µM (inactive) with SK-MEL-28; > 100 µM (inactive) with A498; > 100 µM (inactive) in the test on CAKI-1; 24.8 µM (inactive) in the test with RPMI-8226. Further, the GI50 with SK-MEL-2 is 35.6 µM (inactive); in the test on PC-3 it was 56.2 µM (inactive); with NCI-H522 it was 52.6 µM (inactive); in the test on MDA-N, 66.4 µM (inactive); in the test on OVCAR-8, 61 µM (inactive); in the test with HCT-15, 69.5 µM.

As to `Cc1cn(C2CC(/[N+]([O-])=N\Nc3ccc([N+](=O)[O-])cc3)C(CO)O2)c(=O)[nH]c1=O` (configuration not stated), the GI50 in the test with RXF 393, with EKVX, in the test with NCI/ADR-RES, in the test with K562, in the test on CCRF-CEM and in the test with SF-295 was > 100 µM (inactive) in each case. The GI50 with MDA-MB-231 is 73.3 µM (inactive); with UACC-62, > 100 µM (inactive); with SK-MEL-28, > 100 µM (inactive); in the test on A498, > 100 µM (inactive); in the test on CAKI-1, > 100 µM (inactive); in the test with RPMI-8226, 42.8 µM (inactive). In addition, the GI50 in the test on PC-3 is > 100 µM (inactive); with NCI-H522, > 100 µM (inactive); in the test with MDA-N, > 100 µM (inactive); in the test on OVCAR-8, > 100 µM (inactive); in the test with HCT-15 it was greater than 100 µM; in the test with NCI-H23, > 100 µM (inactive).

Turning to `Cc1csc(-n2c(C)nc3cc(Cl)ccc3c2=O)n1`, the GI50 is > 100 µM (inactive) in the test on RXF 393; 8.02 µM (inactive) in the test with EKVX; 86.3 µM (inactive) in the test with NCI/ADR-RES; 45.4 µM (inactive) in the test on OVCAR-4; 83.6 µM (inactive) in the test on K562; 74.8 µM (inactive) with CCRF-CEM. In addition, the GI50 with SF-295, in the test with MDA-MB-231, in the test on UACC-62, in the test on SK-MEL-28, with A498 and with CAKI-1 was > 100 µM (inactive) throughout. The GI50 in the test with SK-MEL-2 was > 100 µM (inactive); in the test on PC-3 it was > 100 µM (inactive); in the test with NCI-H522, 22.2 µM (inactive); in the test with MDA-N, > 100 µM (inactive); with OVCAR-8, > 100 µM (inactive); with HCT-15, 67.5 µM. The GI50 with NCI-H23 was 71.8 µM (inactive).

On to `CC(C)C(C/C=C1/CC(CO)(COC(=O)C(C)(C)C)OC1=O)C(C)C` (configuration not stated), for which the GI50 in the test with RXF 393 is 15.6 µM (inactive); with EKVX it was 8.17 µM (inactive); in the test on NCI/ADR-RES it was 15.7 µM (inactive); in the test on OVCAR-4, 16.6 µM (inactive); with K562, 0.171 µM (active); in the test on CCRF-CEM, 12.1 µM (inactive). Also, the GI50 was 2.61 µM (inactive) in the test on SF-295; 3.25 µM (inactive) in the test on MDA-MB-231; 12.9 µM (inactive) in the test with UACC-62; 15.9 µM (inactive) with SK-MEL-28; 7.67 µM (inactive) in the test on A498; 3.3 µM (inactive) with CAKI-1. Further, the GI50 with SK-MEL-2 is 15.1 µM (inactive); in the test on PC-3, 6.24 µM (inactive); in the test on NCI-H522, 12.6 µM (inactive); with MDA-N, 4.3 µM (inactive); with OVCAR-8 it was 19 µM (inactive); in the test with HCT-15, 16.9 µM. For the same molecule, in the test with NCI-H23, the GI50 was 9.51 µM (inactive).

As to `CSc1cc(Cl)c(C)cc1S(=O)(=O)NC(=O)NNc1cnc2ccccc2n1`, the GI50 in the test with RXF 393, in the test with EKVX, in the test with NCI/ADR-RES, with OVCAR-4, in the test with K562 and in the test with CCRF-CEM was > 100 µM (inactive) in each case. Moreover, the GI50 in the test on SF-295, in the test on MDA-MB-231, in the test on SK-MEL-28, in the test with A498, with CAKI-1 and with SK-MEL-2 was > 100 µM (inactive) each time. The GI50 with PC-3 is > 100 µM (inactive); in the test with NCI-H522, > 100 µM (inactive); with MDA-N, > 100 µM (inactive); in the test on OVCAR-8, > 100 µM (inactive); in the test with HCT-15, greater than 100 µM.

Consider `O=C1CC(=O)NC(NN2C(=O)/C(=C/C(=O)c3ccco3)N=C2c2ccccc2)=N1`, for which the GI50 with RXF 393 was 66.8 µM (inactive); in the test with NCI/ADR-RES, 41.1 µM (inactive); with OVCAR-4, 31 µM (inactive); in the test on CCRF-CEM it was 20.6 µM (inactive); with SF-295 it was 94.2 µM (inactive); in the test with MDA-MB-231, > 100 µM (inactive). The GI50 was 37.7 µM (inactive) with UACC-62; > 100 µM (inactive) in the test with SK-MEL-28; > 100 µM (inactive) in the test with A498; > 100 µM (inactive) in the test with CAKI-1; 92.7 µM (inactive) with SK-MEL-2; 29.4 µM (inactive) in the test with PC-3. Also, the GI50 in the test on NCI-H522 was 17.7 µM (inactive); in the test on MDA-N, 77.3 µM (inactive); in the test on OVCAR-8, 44.5 µM (inactive); with HCT-15, greater than 100 µM; with NCI-H23, > 100 µM (inactive).

As to `CCCCc1cc2c(C)cc(=O)oc2c(O)c1O`, the GI50 was 24.8 µM (inactive) in the test on RXF 393; 52.8 µM (inactive) with EKVX; 22.6 µM (inactive) with NCI/ADR-RES; 32.1 µM (inactive) in the test on OVCAR-4; 27.4 µM (inactive) with K562; 21.3 µM (inactive) with CCRF-CEM. Also, the GI50 is 22.2 µM (inactive) in the test on SF-295; 13.6 µM (inactive) in the test with MDA-MB-231; 37.3 µM (inactive) in the test with SK-MEL-28; 26.5 µM (inactive) in the test with A498; 23.4 µM (inactive) with CAKI-1; 17.5 µM (inactive) in the test with RPMI-8226. The GI50 in the test with SK-MEL-2 was 3.6 µM (inactive); in the test with PC-3, 21.3 µM (inactive); with NCI-H522, 21.5 µM (inactive); in the test on MDA-N it was 38.5 µM (inactive); in the test with OVCAR-8, 31.6 µM (inactive); in the test with HCT-15, 26.9 µM. In addition, the GI50 in the test with NCI-H23 was 34.9 µM (inactive).

Regarding `c1ccc(CCNc2ccccn2)nc1`, the GI50 in the test on RXF 393, in the test on EKVX, in the test with NCI/ADR-RES, with OVCAR-4, in the test with CCRF-CEM and in the test on SF-295 was > 100 µM (inactive) throughout. In addition, the GI50 with MDA-MB-231, in the test with UACC-62, in the test on SK-MEL-28, in the test on A498, with CAKI-1 and in the test on SK-MEL-2 was > 100 µM (inactive) throughout. For the same molecule, the GI50 is > 100 µM (inactive) in the test with PC-3; > 100 µM (inactive) in the test with NCI-H522; > 100 µM (inactive) in the test with MDA-N; > 100 µM (inactive) in the test on OVCAR-8; greater than 100 µM in the test with HCT-15; > 100 µM (inactive) in the test with NCI-H23.

Take `O=C1N[C@@H]2c3c(csc3Br)C(=O)[C@@H]2O1`: the GI50 in the test with RXF 393 was 15.5 µM (inactive); in the test with EKVX, 30.4 µM (inactive); with NCI/ADR-RES it was 96.4 µM (inactive); in the test on K562 it was 21.5 µM (inactive); with CCRF-CEM, 15 µM (inactive); in the test with SF-295 it was 59.2 µM (inactive). The GI50 was 43.7 µM (inactive) in the test with MDA-MB-231; 34.1 µM (inactive) in the test on UACC-62; 33.3 µM (inactive) in the test with SK-MEL-28; > 100 µM (inactive) in the test with A498; 20.8 µM (inactive) with CAKI-1; 26.9 µM (inactive) with RPMI-8226. The GI50 in the test with SK-MEL-2 was 46.5 µM (inactive); with PC-3 it was 41.6 µM (inactive); with NCI-H522, 30.1 µM (inactive); with MDA-N, 25.1 µM (inactive); in the test on OVCAR-8 it was 22.2 µM (inactive); in the test with HCT-15 it was 31.5 µM. For the same molecule, the GI50 in the test on NCI-H23 was 41.7 µM (inactive).

As to `COc1ccc(-c2nc(SCC(=O)N/N=C/c3ccc(O)c(OC)c3)[nH]c2-c2ccc(OC)cc2)cc1`, the GI50 in the test on RXF 393 is 18.6 µM (inactive); with EKVX, 33.3 µM (inactive); in the test with NCI/ADR-RES, 31.8 µM (inactive); with OVCAR-4 it was 40.9 µM (inactive); in the test with K562, 20 µM (inactive); in the test on CCRF-CEM, 3.44 µM (inactive). The GI50 was 20.2 µM (inactive) in the test with SF-295; 24.7 µM (inactive) with MDA-MB-231; 14.1 µM (inactive) with UACC-62; 28.4 µM (inactive) in the test with SK-MEL-28; 18.8 µM (inactive) with A498; 54.3 µM (inactive) with CAKI-1. For the same molecule, the GI50 in the test with SK-MEL-2 is 17.3 µM (inactive); with PC-3 it was 27.1 µM (inactive); in the test on NCI-H522, 19.2 µM (inactive); in the test with MDA-N it was 22.1 µM (inactive); in the test on OVCAR-8, 28.9 µM (inactive); in the test with HCT-15, 24.2 µM. For the same molecule, the GI50 with NCI-H23 is 21.9 µM (inactive).

Take `CCN1CCN(c2ccc(Nc3ccnc4ccc5c(nnn5C)c34)cc2)CC1`: the GI50 is 7.19 µM (inactive) in the test with RXF 393; 13.7 µM (inactive) in the test on EKVX; 9.14 µM (inactive) with NCI/ADR-RES; 7.23 µM (inactive) in the test on OVCAR-4; 3.61 µM (inactive) with K562; 4.6 µM (inactive) in the test on CCRF-CEM. The GI50 in the test with SF-295 was 8.2 µM (inactive); in the test on MDA-MB-231 it was 8.55 µM (inactive); with UACC-62 it was 13.7 µM (inactive); in the test with SK-MEL-28, 11.1 µM (inactive); in the test on A498, 14.8 µM (inactive); in the test on CAKI-1, 5.48 µM (inactive). Also, the GI50 in the test on SK-MEL-2 was 12.2 µM (inactive); in the test with PC-3, 5.28 µM (inactive); in the test with NCI-H522 it was 1.1 µM (active); in the test with MDA-N it was 3.52 µM (inactive); in the test with OVCAR-8, 13.1 µM (inactive); in the test on HCT-15, 3.95 µM. Besides, the GI50 with NCI-H23 is 11.6 µM (inactive).
